Test results published in US20260191969A1, “COMPOSITION CONTAINING ANIONIC LONG-CHAIN LIPID TO BE USED FOR ATTENUATING SKIN BARRIER FUNCTION, AND DISPERSION CONTAINING COMPLEX COMPRISING CATIONIC LONG-CHAIN LIPID, ANIONIC LONG-CHAIN LIPID AND DRUG DISPERSED THEREIN” (KYUSHU UNIVERSITY, NATIONAL UNIVERSITY CORPORATION, priority 2022, published 2026).
Strand notation (5' to 3'): a small letter for the sugar, then the base; units joined by * are phosphorothioate-linked, units joined directly phosphodiester-linked; [ ] holds rarer units or linkages, { } end groups; capitals alone tell only the bases. l = locked nucleic acid (LNA); [5mC] = 5-methylcytosine; d = 2'-deoxy (DNA)

System: SNORA23
Assay: knock-down of target RNA after transdermal or subcutaneous administration to tumor-bearing mice (RT-PCR)
Assay type: in vivo
Settings: for expression level of the target RNA (SNORA23): 250 μg ASO in 50 μL, two days after, skin, subcutaneous tumor, liver, FIG. 34
Experimental: A formulation targeting SNORA23 was prepared. To mice, 3×10^6 ES2 ovarian carcinoma cells were subcutaneously transplanted, and the formation of subcutaneous tumor was checked 1 week after that. To the top (1 cm×1 cm) of a tumor or into the periphery of a tumor, 50 μL of hybrid particles containing 250 μg of ASO targeting SNORA23 was applied or subcutaneously injected. For the transdermal administration group, protective tape was wound once around the trunk including the administration site.
Two days after the administration, the skin, subcutaneous tumor, and liver were isolated, and total RNA was extracted. The level of targeted RNA (SNORA23) was quantified, and the presence or absence of reduction in the expression level was examined by an RT-PCR method.

5′-GAAacctatgmCAmCa-3′ (lG*lA*lA*dA*dC*dC*dT*dA*dT*dG*l[5mC]*lA*l[5mC]*dA) [ASO]
knock-down of target RNA in the liver (irrespective of the route of administration, suggests migration of ASO into blood): knock-down effect | expression level of the target RNA (SNORA23) (subcutaneous administration): Reduction of the expression level of the target RNA was induced | expression level of the target RNA (SNORA23) (transdermal administration): Reduction of the expression level of the target RNA was induced
